Where “and” joins values, the source holds several entries; their conditions need not be identical. Equal values may be shown once.
What was measured:
[1] = biological target: T1, CMV polymerase (Human cytomegalovirus, UniProt P08546); test: modified version of the HCMV polymerase assay (100% DMSO dilution, DTT, different enzyme lot); assay type: biochemical; conditions: Table 3; for inhibition at 6.25 µM: Concentration 6.25 uM; for inhibition at 12.5 µM: Concentration 12.5 uM; for inhibition at 25 µM: Concentration 25 uM; for inhibition at 50 µM: Concentration 50 uM; for inhibition at 100 µM: Concentration 100 uM; for IC50: read-out: IC50; for inhibition at 3.13 µM: Concentration 3.13 uM; for inhibition at 200 µM: Concentration 200 uM
T1 construct: made in house; host or cells: recombinant baculovirus-infected SF-9 cells
Procedure: The HCMV polymerase assay is performed using a scintillation proximity assay (SPA) as described in several references, such as N. D. Cook, et al., Pharmaceutical Manufacturing International, pages 49-53 (1992); K. Takeuchi, Laboratory Practice, September issue (1992); U.S. Pat. No. 4,568,649 (1986); which are incorporated by reference herein. Reactions are performed in 96-well plates. The assay is conducted in 100 μl volume with 5.4 mM HEPES (pH 7.5), 11.7 mM KCl, 4.5 mM MgCl2, 0.36 mg/ml BSA, and 90 nM ^3H-dTTP. Assays are run with and without CHAPS, (3-[(3-Cholamidopropyl)-dimethylammonio]-1-propane-sulfonate) at a final concentration of 2 mM. HCMV is diluted in enzyme dilution buffer containing 50% glycerol, 250 mM NaCl, 10 mM HEPES (pH 7.5), 100 pg/ml BSA, and 0.01% sodium azide. The HCMV polymerase, which is expressed in recombinant baculovirus-infected SF-9 cells and purified according to literature procedures, is added at 10% (or 10 μl) of the final reaction volume, i.e., 100 μl. Compounds are diluted in 50% DMSO and 10 μl are added to each well. Control wells contain an equivalent concentration of DMSO. Unless noted otherwise, reactions are initiated via the addition of 6 nM biotinylated poly(dA)-oligo(dT) template/primer to reaction mixtures containing the enzyme, substrate, and compounds of interest. Plates are incubated in a 25° C. of 37° C. H2O bath and terminated via the addition of 40 μl/reaction of 0.5 M EDTA (pH 8) per well. Reactions are terminated within the time-frame during which substrate incorporation is linear and varied depending upon the enzyme and conditions used, i.e., 30 min. for HCMV polymerase. Ten μl of streptavidin-SPA beads (20 mg/ml in PBS/10% glycerol) are added following termination of the reaction. Plates are incubated 10 min. at 37° C., then equilibrated to room temperature, and counted on a Packard Topcount. Linear regressions are performed and IC50's are calculated using computer software. Results of the testing of compounds of the present invention in this assay are shown in Tables 1, 2, 5, 9, 10, 11, 13 (except for the last compound which was tested under modified conditions) and 14 below.
A modified version of the above HCMV polymerase assay is performed as described above, but with the following changes: Compounds are diluted in 100% DMSO until final dilution into assay buffer. In the previous assay, compounds are diluted in 50% DMSO. 4.5 mM dithiotherotol (DTT) is added to the polymerase buffer.

[2] = biological target: T2, HCMV polymerase (Human cytomegalovirus, UniProt P08546); test: HCMV polymerase assay (scintillation proximity assay); assay type: biochemical; conditions: Table 5; pol type CMV; read-out: IC50
T2 construct: made in house; host or cells: recombinant baculovirus-infected SF-9 cells
How it was run: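 Baculovirus/SF-9-expressed purified enzyme in HEPES pH 7.5, KCl, 4.5 mM MgCl2, BSA, with 90 nM ³H-dTTP, ± 2 mM CHAPS; started with 6 nM biotinylated poly(dA)-oligo(dT), 30 min, stopped with EDTA. Incorporation read by streptavidin SPA beads; IC50 by linear regression.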

T1 sequence (P08546 whole entry): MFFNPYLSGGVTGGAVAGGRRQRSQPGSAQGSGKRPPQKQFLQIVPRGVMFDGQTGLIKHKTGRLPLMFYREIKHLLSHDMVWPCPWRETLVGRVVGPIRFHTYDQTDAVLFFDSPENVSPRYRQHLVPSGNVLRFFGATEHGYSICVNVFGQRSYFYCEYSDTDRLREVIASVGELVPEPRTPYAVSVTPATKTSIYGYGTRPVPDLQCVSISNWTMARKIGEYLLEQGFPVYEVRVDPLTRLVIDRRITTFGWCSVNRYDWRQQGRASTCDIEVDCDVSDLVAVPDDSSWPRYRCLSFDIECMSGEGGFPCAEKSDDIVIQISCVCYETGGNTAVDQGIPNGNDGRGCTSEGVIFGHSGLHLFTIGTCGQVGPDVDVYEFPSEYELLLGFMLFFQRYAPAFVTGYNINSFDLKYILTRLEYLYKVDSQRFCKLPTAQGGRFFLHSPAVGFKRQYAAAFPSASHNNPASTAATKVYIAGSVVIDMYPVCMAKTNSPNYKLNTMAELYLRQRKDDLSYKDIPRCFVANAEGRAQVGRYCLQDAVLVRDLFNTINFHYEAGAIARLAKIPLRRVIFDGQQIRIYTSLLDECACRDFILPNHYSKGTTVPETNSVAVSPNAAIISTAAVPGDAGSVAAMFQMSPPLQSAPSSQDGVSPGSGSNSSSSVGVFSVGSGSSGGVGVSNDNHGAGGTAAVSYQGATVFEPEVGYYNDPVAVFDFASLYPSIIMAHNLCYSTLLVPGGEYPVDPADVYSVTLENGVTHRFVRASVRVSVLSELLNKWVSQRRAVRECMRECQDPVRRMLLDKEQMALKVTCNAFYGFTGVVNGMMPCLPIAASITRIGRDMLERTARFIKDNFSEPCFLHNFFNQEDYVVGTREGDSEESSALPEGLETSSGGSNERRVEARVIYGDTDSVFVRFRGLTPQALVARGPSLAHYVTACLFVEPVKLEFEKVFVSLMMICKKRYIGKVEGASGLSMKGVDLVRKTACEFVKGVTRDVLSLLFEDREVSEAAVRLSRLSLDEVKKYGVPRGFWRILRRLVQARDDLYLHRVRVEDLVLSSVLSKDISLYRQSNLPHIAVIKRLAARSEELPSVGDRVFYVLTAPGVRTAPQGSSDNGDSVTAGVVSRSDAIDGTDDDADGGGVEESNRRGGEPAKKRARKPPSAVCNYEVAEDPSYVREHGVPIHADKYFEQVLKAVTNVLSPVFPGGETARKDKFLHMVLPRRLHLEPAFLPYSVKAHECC
T2 sequence (P08546 whole entry): as above

SMILES	inhibition at 6.25 µM [1]	inhibition at 12.5 µM [1]	inhibition at 25 µM [1]	inhibition at 50 µM [1]	inhibition at 100 µM [1]	IC50 [1]	melting point	inhibition at 3.13 µM [1]	inhibition at 200 µM [1]	IC50 [2]
Cc1ccc2c(Cl)cc(S(=O)(=O)NCCCc3ccccc3)c(O)c2n1 [Example 34, 5-Chloro-8-hydroxy-2-methyl-N-(3-phenylpropyl)-7-quinoline-sulfonamide]	21%	57%	63%	54%	97%	17.2 µM	131 to 134 °C	–	–	–
Cc1ccc2c(Cl)cc(S(=O)(=O)NCCOc3ccccc3)c(O)c2n1 [Example 35, 5-Chloro-8-hydroxy-2-methyl-N-(2-phenoxyethyl)-7-quinoline-sulfonamide]	41%	44%	–	89%	96%	10 µM	106 to 107 °C	31%	–	–
Cc1ccc2c(Cl)cc(S(=O)(=O)NCCCN3CCOCC3)c(O)c2n1 [Example 36, 5-Chloro-8-hydroxy-2-methyl-N-[3-(4-morpholinyl)propyl]-7-quinoline-sulfonamide]	-3%	6%	0%	15%	3%	> 200 µM	245 to 257 °C	-1%	19%	–
Cc1ccc2c(Cl)cc(S(=O)(=O)NCCCn3ccnc3)c(O)c2n1 [Example 37, 5-Chloro-8-hydroxy-N-[3-(1H-imidazol-1-yl)propyl]-2-methyl-7-quinolinesulfonamide]	3%	12%	21%	50%	55%	72.3 µM	194 to 196 °C	–	–	–
Cc1ccc2c(Cl)cc(S(=O)(=O)NC(c3ccccc3)c3ccccc3)c(O)c2n1 [Example 38, 5-Chloro-N-(diphenylmethyl)-8-hydroxy-2-methyl-7-quinoline-sulfonamide]	36%	58%	62%	96%	97%	10.5 µM	115 to 119 °C	–	–	–
Cc1ccc2c(Cl)cc(S(=O)(=O)N[C@H](C)c3ccccc3)c(O)c2n1 [Example 39, (R)-5-Chloro-8-hydroxy-2-methyl-N-(1-phenylethyl)-7-quinolinesulfonamide]	28%	43%	41%	79%	71%	21.6 µM	84 to 88 °C	16%	90%	–
Cc1ccc2c(Cl)cc(S(=O)(=O)N[C@@H](C)c3ccccc3)c(O)c2n1 [Example 40, (S)-5-Chloro-8-hydroxy-2-methyl-N-(1-phenylethyl)-7-quinolinesulfonamide]	36%	47%	53%	80%	94%	13.7 µM	83 to 87 °C	22%	–	–
O=C(NCCSc1ccccc1)c1ccc2ccc(/C=C/c3ccccc3)nc2c1O [Example 52, 8-Hydroxy-2-(2-phenylethenyl)-N-[2-(phenylthio)ethyl]-7-quinolinecarboxamide]	–	–	–	–	–	–	131 to 132 °C	–	–	< 3.1 µM and 0.17 µM

— patent US6500842B1, “8-hydroxy-7-substituted quinolines as anti-viral agents” (Pharmacia & Upjohn Company, priority 1996, dated 2002)
